Source: EP4810493A1, “HETEROCYCLIC CARBONYL DERIVATIVE MODULATOR, PREPARATION METHOD THEREFOR, AND USE THEREOF” (Shanghai Hansoh Biomedical Co., Ltd., priority 2023, dated 2025)
Read-outs that look alike come from different tables or passages of the source.

How the values were obtained:
[1] = six weeks of dosing, cited from earlier work
[2] = Pharmacokinetic determination in SD rats; details: rat, in vivo, po, male SD rats, p.o. 5 mg/kg; for MRT inf: read-out: MRT 0-∞
Protocol: To investigate the pharmacokinetic behaviours of the example compounds in both plasma and brain of SD rats (test animals) following oral administration at a dose of 5 mg/kg.
(§1) 2.1 Test drugs: The example compounds of the present invention, made in house.
2.2 Test animals: SD Rat, male.
24 SD Rats, male; p.o. respectively at a dose of 5 mg/kg and an administration volume of 10 mL/kg after the rats were fasted overnight.
(§2) Formulation of a drug for oral administration: 0.5% CMC-Na (1% Tween 80).
(§3) 0.50 g of sodium carboxymethyl cellulose (CMC-Na, viscosity: 800-1200 Cps) was weighed and dissolved in 99 mL of purified water, and 1 ml of Tween 80 was added. The components were mixed thoroughly under stirring to form a clear solution.
The example compound was weighed into a 100 mL glass vial, 80 mL of the solution was added, and the mixture was subjected to ultrasound treatment for 10 minutes to obtain a homogeneous suspension with a concentration of 0.5 mg/mL.
(§4) After the test animals were euthanised by CO2, blood samples were collected from the heart and brain tissues were harvested at 0.25 h, 0.5 h, 1 h, 2 h, 4 h, 6 h, 8 h, and 24 h post-dose. Blood was placed in EDTA-2K tubes, and centrifuged at 6000 rpm for 6 min at 4°C to separate the plasma. Brain tissues were rinsed with pre-cold PBS, blotted dry, and weighed. Both plasma and brain samples were stored at -80°C. The animals were fed 4 h after administration.
(§5) • 3) 40 uL of plasma sample was precipitated with 160 uL of acetonitrile, mixed, and centrifuged at 3500 × g for 5-20 min. Brain tissues were diluted, homogenised and centrifuged. • 4) 100 uL of the treated supernatant solution was taken for LC/MS/MS analysis to determine the concentration of the test compounds.
(§6) • Liquid phase conditions: Shimadzu LC-20AD pump • Mass spectrometry conditions: AB Sciex API 4000 mass spectrometer • Chromatographic column: Phenomenex Gemiu 5 um C18 50 × 4.6 mm • Mobile phase: solution A: 0.1% formic acid in water, solution B: acetonitrile • Flow rate: 0.8 mL/min • Elution time: 0-4.0 min, with eluents as follows:
(§7) The main pharmacokinetic parameters were calculated using WinNonlin 8.1.

M4 receptor = biological target: T1, M4 receptor (Homo sapiens, UniProt P08173); experiment: Calcium flux (FLIPR) potentiation assay in cells stably expressing M4 receptor; type: cell-based
T1 construct: expressed in transfected cells
T1 sequence (P08173 1-479): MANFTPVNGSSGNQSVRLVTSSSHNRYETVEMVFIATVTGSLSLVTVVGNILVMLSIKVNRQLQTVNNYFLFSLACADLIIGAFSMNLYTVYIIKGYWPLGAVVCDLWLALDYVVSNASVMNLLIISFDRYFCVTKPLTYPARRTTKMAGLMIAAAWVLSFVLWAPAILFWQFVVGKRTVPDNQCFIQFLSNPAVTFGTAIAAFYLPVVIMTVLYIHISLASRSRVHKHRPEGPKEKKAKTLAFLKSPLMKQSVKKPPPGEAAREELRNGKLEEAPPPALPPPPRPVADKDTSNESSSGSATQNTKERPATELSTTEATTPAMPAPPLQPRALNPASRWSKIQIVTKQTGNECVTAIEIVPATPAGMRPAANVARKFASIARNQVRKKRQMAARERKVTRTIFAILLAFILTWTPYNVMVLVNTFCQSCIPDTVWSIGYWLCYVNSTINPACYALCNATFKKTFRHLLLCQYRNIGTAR
Summary of the method: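 CHO-K1 cells co-expressing Gα15, loaded with Calcium 6 dye 1 h at room temperature, preincubated 2 min with compound ([…]), then challenged with acetylcholine at EC20. Peak fluorescence expressed as % activation between DMSO and ACh EC100 controls.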

[3] = Pharmacokinetic determination in Balb/c mice; details: mouse, in vivo, po, male Balb/c mice, p.o. 5 mg/kg; for MRT inf: read-out: MRT 0-∞
Protocol: To investigate the pharmacokinetic behaviours of the example compounds in both plasma and brain of Balb/c mice (test animals) following oral administration at a dose of 5 mg/kg.
as §1
2.2 Test animals: Balb/c Mouse, male.
24 Balb/c mice, male; p.o. respectively at a dose of 5 mg/kg and an administration volume of 10 mL/kg after the mice were fasted overnight.
as §2, §3
The example compound was weighed into a 4-mL glass vial, 2.4 mL of the solution was added, and the mixture was subjected to ultrasound treatment for 10 minutes to obtain a homogeneous suspension with a concentration of 0.5 mg/mL.
as §4
as §5, with “1)” for “3)”, “2)” for “4)”
as §6, §7

[4] = in vivo; cited from earlier work
[5] = CHO-K1/M4/Gα15 cells, potentiation of acetylcholine (EC20) calcium flux, read-out: M4 FLIPR EC50

AUC(0-inf) [2] | Cmax [2] | Tmax [2] | MRT inf [2] | EC50 (M4 receptor; [5]) | AUC(0-inf) [3] | Cmax [3] | Tmax [3] | MRT inf [3] | SMILES | mean reduction in the Positive and Negative Syndrome Scale (PANSS) total score from baseline ([1]; 20 mg twice daily) | mean reduction in the Positive and Negative Syndrome Scale (PANSS) total score from baseline ([1]; 30 mg once daily) | EC50 (M4 receptor) | learning deficits induced by the NMDA receptor antagonist MK-801 [4]
– | – | – | – | – | – | – | – | – | Cc1cc(C)c2c(n1)CN(C(=O)CC1CN(c3ccnc(C(F)(F)F)c3)C1)C2 [CVL-231] | 17.9 points | 19.5 points | – | –
17500 ng·h/mL | 4520 ng/mL | 2 h | 2.7 h | 72.4 nM | 7370 ng·h/mL | 2560 ng/mL | 0.5 h | 2.5 h | Cc1c2c(c3ncnn3c1C)CN(C(=O)OC1CN(c3ccnc(C(F)(F)F)c3)C1)C2 [Example 32, 1-(2-(Trifluoromethyl)pyridin-4-yl)azetidin-3-yl 5,6-dimethyl-7,9-dihydro-8H-pyrrolo[3,4-c][1,2,4]triazolo[1,5-a]pyridine-8-carboxylate] | – | – | – | –
10800 ng·h/mL | 2450 ng/mL | 2 h | 2.6 h | 13.9 nM | 2540 ng·h/mL | 1950 ng/mL | 0.25 h | 1.2 h | Cc1c2c(c3ncnn3c1C)CN(C(=O)CC1CN(c3ccnc(OC(F)F)c3)C1)C2 [Example 52] | – | – | – | –
12200 ng·h/mL | 2530 ng/mL | 2 h | 3.5 h | – | 4160 ng·h/mL | 1040 ng/mL | 0.5 h | 3.8 h | Cc1c2c(c3ncnn3c1C)CN(C(=O)OC1CN(c3ccnc(OC(F)F)c3)C1)C2 [Example 123] | – | – | – | –
11000 ng·h/mL | 1710 ng/mL | 2 h | 4.6 h | 85.8 nM | 4790 ng·h/mL | 1890 ng/mL | 0.5 h | 1.4 h | Cc1c2c(c3ncnn3c1C)CN(C(=O)CC1CN(c3ncc(C(F)(F)F)cn3)C1)C2 [Example 144, 1-(5,6-Dimethyl-7,9-dihydro-8H-pyrrolo[3,4-c][1,2,4]triazolo[1,5-a]pyridin-8-yl)-2-(1-(5-(trifluoromethyl)pyrimidin-2-yl)azetidin-3-yl)ethan-1-one] | – | – | – | –
– | – | – | – | – | – | – | – | – | Cc1nnc2sc(C(=O)NCc3ccc(S(=O)(=O)C(F)(F)F)cc3)c(N)c2c1C [VU0467154] | – | – | – | improved learning deficits

SMILES | AUC(0-inf) [2] | Cmax [2] | Tmax [2] | MRT inf [2] | EC50 (M4 receptor; [5]) | AUC(0-inf) [3] | Cmax [3] | Tmax [3] | MRT inf [3] | mean reduction in the Positive and Negative Syndrome Scale (PANSS) total score from baseline ([1]; 20 mg twice daily) | mean reduction in the Positive and Negative Syndrome Scale (PANSS) total score from baseline ([1]; 30 mg once daily) | EC50 (M4 receptor) | learning deficits induced by the NMDA receptor antagonist MK-801 [4]
Cc1cn2nc(N3CC(OC(=O)N4Cc5c(C)c(C)n6ncnc6c5C4)C3)ccc2n1 [Example 105] | 16300 ng·h/mL | 2680 ng/mL | 1 h | 4.3 h | – | 10200 ng·h/mL | 1570 ng/mL | 0.5 h | 4.3 h | – | – | 19.9 nM | –
